Legend:
Type in all cases: in vivo
[1] = tested on: Cabbage Looper [Trichoplusia ni (Hubner)]; test: Cabbage looper test (CL); conditions: second-instar larvae, 3-5 days, percent in solution
Method: Test compounds were diluted in a 50-50 acetone-water solution. Cotyledons of hyzini squash (Calabacita abobrinha), approximately 1×1.5 inches, were immersed in the test solutions for 2-3 seconds and placed on a wire screen to dry. The dried leaves were placed in petri dishes containing a moistened piece of filter paper and infested with 5 second-instar cabbage looper larvae. The dishes were placed in a high humidity chamber. Mortality of the larvae was recorded 3-5 days later. Test concentrations ranged from 0.1% downward. The LC-50 value is expressed below in Table 3 under the heading "CL" in terms of percent of the test compound in solution.

[2] = tested on: Housefly [Musca domestica]; test: Housefly insecticidal test (HF); conditions: per 25 female houseflies, 48 hours
Method: Test compounds were diluted in acetone and aliquots pipetted onto the bottom of aluminum dishes. To ensure even spreading of the chemical on the bottom of the dishes, 1 ml of acetone containing 0.01% peanut oil was also added to each dish. After all solvents had evaporated, the dishes were placed in circular cardboard cages containing 25 female houseflies, 1-2 days old. The cages were covered on the bottom with cellophane and on the top with tulle netting, and each contained a sugar-water saturated cotton plug for maintenance of the flies. Mortality was recorded after 48 hours. Test levels ranged from 100μg/25 female houseflies downward.

[3] = tested on: Tobacco Budworm [Heliothis virescens (Fabricius)] eggs; test: Tobacco budworm egg test (TBW-E); conditions: percent in solution
From the text: Eggs: Paper towel patches of 2-day old eggs of the tobacco budworm were dipped in acetone solutions of the test compound and placed in petri dishes containing a portion of larval rearing medium. […] Test concentrations ranged from 0.1% downward.

| Structure (SMILES) | LC50 CL [1] | LC50 HF [2] | LC50 TBW E [3] |
| --- | --- | --- | --- |
| CC(C)C(=Nc1cccc(C(F)(F)F)c1)OCc1ccc(OCc2ccc(F)cc2)cc1 [Compound 488] | 0.025% | > 100 µg | > 0.1% |
| CC(C)C(=Nc1ccc2c(c1)OCO2)OCc1cccc(Oc2ccc(C(F)(F)F)cc2)c1 [Compound 246] | 0.004% | 60 µg | > 0.1% |
| CC(C)C(=Nc1ccc(Cl)c(Cl)c1)OCc1cccc(Oc2cccc(Cl)c2)c1 [Compound 207] | 0.008% | > 100 µg | > 0.1% |
| CCOc1cccc(N=C(OCc2cccc(Oc3ccccc3)c2)C(C)C)c1 [Compound 171] | 0.01% | 80 µg | > 0.1% |
| CC(C)C(=Nc1ccc(Br)cc1F)OCc1cccc(Oc2ccccc2)c1 [Compound 79] | 0.003% | 6 µg | 0.05% |
| CC(C)C(=Nc1ccc(F)c(Cl)c1)OCc1coc(Cc2ccccc2)c1 [Compound 474] | 0.0012% | 8 µg | > 0.1% |
| CC(C)(Cl)C(=Nc1ccc(F)c(Cl)c1)OCc1cccc(Oc2ccc(F)cc2)c1 [Compound 224] | 0.001% | > 100 µg | > 0.1% |
| CC(C)C(=Nc1ccc2c(c1)OCO2)OCc1c(F)c(F)c(F)c(F)c1F [Compound 464] | 0.08% | > 100 µg | > 0.1% |
| COc1ccc(Oc2cccc(COC(=Nc3ccc(F)c(Cl)c3)C(C)C)c2)cc1 [Compound 221] | 0.0027% | 62 µg | > 0.1% |
| CCCC(=Nc1ccc(OC)cc1)OCc1cccc(Oc2ccccc2)c1 [Compound 184] | 0.024% | 61 µg | > 0.1% |
| CC(C)C(=Nc1ccc(F)cc1)OCc1cccc(Oc2ccc(F)cc2F)c1 [Compound 206] | 0.0017% | 50 µg | > 0.1% |
| Cc1ccc(N=C(OCc2cccc(Oc3ccccc3)c2)C(C)(C)C)cc1Cl [Compound 107] | 0.007% | > 100 µg | > 0.1% |
| CC(C)C(=Nc1ccc(F)cc1)OCc1cccc(Oc2ccc(F)c(F)c2)c1 [Compound 265] | 0.00025% | 10 µg | 0.07% |
| CC(C)C(=Nc1ccc2c(c1)OC(C)(C)O2)OCc1cccc(Oc2ccc(Cl)cc2)c1 [Compound 241] | 0.0004% | > 100 µg | > 0.1% |
| COC(C)C(=Nc1ccc(Cl)cc1)OCc1cccc(Oc2ccccc2)c1 (stereo not drawn) [Compound 22] | 0.004% | 15 µg | 0.08% |
| CC(C)C(=Nc1ccc2c(c1)OCO2)OCc1cc(Oc2ccc(F)cc2)ccc1Cl [Compound 274] | 0.1% | > 100 µg | > 0.1% |
| CC(C)C(=Nc1cccc(Cl)c1)OCc1cccc(Oc2ccc(Br)cc2)c1 [Compound 260] | 0.00075% | 22 µg | > 0.1% |
| CC(C)C(=Nc1cc(C(F)(F)F)ccc1F)OCc1cccc(Oc2ccccc2)c1 [Compound 84] | 0.006% | 93 µg | 0.1% |
| CC(C)C(=Nc1cccc(C#N)c1)OCc1cccc(Oc2ccccc2)c1 [Compound 126] | 0.08% | > 100 µg | > 0.1% |
| CC(C)(F)C(=Nc1ccc(F)c(Cl)c1)OCc1cccc(Oc2ccc(F)cc2)c1 [Compound 309] | 0.00017% | > 100 µg | 0.07% |
| CC(C)C(=Nc1cc(Cl)c(Cl)cc1Cl)OCc1cccc(Oc2ccccc2)c1 [Compound 18] | 0.008% | > 100 µg | 0.09% |
| CC(C)C(=Nc1ccc(Br)c(Br)c1)OCc1cccc(Oc2ccccc2)c1 [Compound 252] | 0.0035% | 34 µg | 0.04% |

| Structure (SMILES) | LC50 CL [1] | LC50 HF [2] | LC50 TBW E [3] |
| --- | --- | --- | --- |
| COc1ccc(C)cc1N=C(OCc1cccc(Oc2ccccc2)c1)C(C)C [Compound 150] | 0.01% | 89 µg | > 0.1% |
| Clc1cccc(N=C(OCc2cccc(Oc3ccccc3)c2)C2CC2)c1 [Compound 24] | 0.005% | 25 µg | 0.1% |
| CC(C)C(=Nc1ccc(Cl)cc1)OCc1cccc(Oc2ccc(Br)cc2)c1 [Compound 237] | 0.0006% | 50 µg | 0.075% |
| CCCC(=Nc1ccc(Cl)c(Cl)c1)OCc1cccc(Oc2ccccc2)c1 [Compound 38] | 0.006% | 33 µg | 0.05% |
| CC(C)C(=Nc1ccc(F)c(Cl)c1)OCc1cccc(Oc2ccc(C(F)(F)F)cc2)c1 [Compound 247] | 0.009% | > 100 µg | > 0.1% |
| CCC(CC)C(=Nc1ccc(C(C)C)cc1)OCc1cccc(Oc2ccccc2)c1 [Compound 321] | 0.05% | > 100 µg | > 0.1% |
| CCCCc1ccc(N=C(OCc2cccc(Oc3ccccc3)c2)C(C)C)cc1 [Compound 152] | 0.009% | > 100 µg | > 0.1% |
| CC(C)C(=Nc1cccc(F)c1)OCc1cccc(Oc2ccc(F)cc2)c1 [Compound 200] | 0.00075% | 7.5 µg | 0.1% |
| COc1cc(N=C(OCc2cccc(Oc3ccccc3)c2)C(C)C)c(OC)cc1Cl [Compound 99] | 0.016% | > 100 µg | > 0.1% |
| CC(=O)c1cccc(N=C(OCc2cccc(Oc3ccccc3)c2)C(C)C)c1 [Compound 170] | 0.1% | 37 µg | > 0.1% |
| COc1ccc(N=C(OCc2cccc(Oc3ccccc3)c2)C(C)C)c(C)c1 [Compound 149] | 0.007% | 17 µg | 0.05% |
| COc1ccc(N=C(OCc2cccc(Oc3ccc(F)cc3)c2)C(C)C)cc1Cl [Compound 110] | 0.007% | 26 µg | 0.04% |
| CC(C)C(=Nc1ccc(F)c(F)c1)OCc1cccc(Oc2ccc(Br)cc2)c1 [Compound 275] | 0.00012% | 21 µg | 0.045% |
| CC(C)C(=Nc1cccc(OC(F)(F)C(F)F)c1)OCc1cccc(Oc2ccc(F)cc2)c1 [Compound 288] | 0.0015% | > 100 µg | > 0.1% |
| CC(C)(F)C(=Nc1ccc(F)c(F)c1)OCc1cccc(Oc2ccc(F)cc2)c1 [Compound 318] | 0.0007% | 19 µg | > 0.1% |
| CCC(=Nc1ccc(CC)cc1)OCc1cccc(Oc2ccccc2)c1 [Compound 157] | 0.009% | 25 µg | > 0.1% |
| CC(C)C(=Nc1ccc2c(c1)OC(C)(C)O2)OCc1cccc(Oc2ccc(Cl)cc2)n1 [Compound 468] | > 0.1% | 50 µg | > 0.1% |
| CCC(C)C(=Nc1ccc(Cl)c(Cl)c1)OCc1cccc(Oc2ccc(F)cc2)c1 (stereo not drawn) [Compound 211] | 0.0017% | 61 µg | > 0.1% |
| CC(C)C(=Nc1ccc(F)c(Cl)c1)OCc1cccc(Oc2cc(F)cc(F)c2)c1 [Compound 215] | 0.00075% | 75 µg | > 0.1% |
| CCC(CC)C(=Nc1ccc(Cl)cc1)OCc1cccc(Oc2ccc(F)cc2)c1 [Compound 290] | 0.017% | > 100 µg | > 0.1% |
| CC(Br)C(=Nc1ccc(F)c(Cl)c1)OCc1cccc(Oc2ccccc2)c1 (stereo not drawn) [Compound 118] | 0.0013% | 18 µg | > 0.1% |
| CC(C)C(=Nc1ccc2c(c1)OCO2)OCc1cccc(Oc2ccccc2F)c1 [Compound 190] | 0.0004% | 7.5 µg | 0.023% |
